Test results as given in patent US20260138978A1, “POSITIVE ALLOSTERIC MODULATORS OF THE MUSCARINIC ACETYLCHOLINE RECEPTOR M1” (Vanderbilt University, priority 2022, published 2026).

Key:
[1] = molecular target: T1, human mAChRM1 (Homo sapiens, UniProt P11229); assay: mAChR M1 cell-based functional assay (calcium mobilization), agonist activity upon compound addition, Emax relative to acetylcholine maximum; conditions: for Agonist Activity Human M1 EC50 / EC50: calcium mobilization upon compound addition; for Emax: relative to the maximum for acetylcholine
T1 construct: host or cells: CHO-K1
T1 sequence (P11229 1-460): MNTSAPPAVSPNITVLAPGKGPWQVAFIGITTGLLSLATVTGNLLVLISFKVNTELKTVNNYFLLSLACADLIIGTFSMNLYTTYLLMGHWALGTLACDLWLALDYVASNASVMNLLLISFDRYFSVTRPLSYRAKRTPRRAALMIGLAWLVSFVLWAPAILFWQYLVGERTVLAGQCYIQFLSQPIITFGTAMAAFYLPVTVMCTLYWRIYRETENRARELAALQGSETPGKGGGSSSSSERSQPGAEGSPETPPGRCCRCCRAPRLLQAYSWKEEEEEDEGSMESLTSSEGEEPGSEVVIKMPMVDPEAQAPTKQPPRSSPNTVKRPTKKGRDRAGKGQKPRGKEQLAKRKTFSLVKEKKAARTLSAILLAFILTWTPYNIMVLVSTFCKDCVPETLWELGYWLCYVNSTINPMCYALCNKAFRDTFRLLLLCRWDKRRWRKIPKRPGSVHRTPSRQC
How it was run: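 Emax is given as a percentage of the maximal acetylcholine response, from four-parameter curves of compound-evoked calcium mobilization. Human M1-transfected CHO-K1 cells carried Fluo-4 dye, and compound (11 concentrations, 1:3 steps) was applied at 4 s of a 300 s kinetic fluorescence recording.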

[2] = molecular target: T1, human mAChRM1; assay: mAChR M1 cell-based functional assay (calcium mobilization), positive allosteric modulator activity: increase in the EC20 acetylcholine response; conditions: for Emax: PAM mode; for EC50: increase in the EC20 acetylcholine response, read-out: PAM Activity Human M1 EC50
How it was run: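 Potentiation is scored as the rise in an EC20 acetylcholine-evoked calcium signal across 11-point (1:3) compound series, fitted with a four-parameter logistic equation to give EC50 and Emax. Read-out is Fluo-4 fluorescence ratio in hM1-transfected CHO-K1 cells, measured kinetically on FDSS.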

Agonist Activity Human M1 EC50 [1]	Emax [2] [%]	EC50 [2] [µM]	EC50 [1] [µM]	Emax [1] [%]	Compound
inactive	83	0.373	–	–	Cn1cc2c(-c3cc(F)c(CN4Cc5ncccc5C4=O)c(F)c3)ccc(C(C)(O)C3CC3)c2n1 (stereo not drawn) [Compound 80, 6-(4-(7-(1-cyclopropyl-1-hydroxyethyl)-2-methyl-2H-indazol-4-yl)-2,6-difluorobenzyl)-6,7-dihydro-5H-pyrrolo[3,4-b]pyridin-5-one]
–	67	0.281	≥ 10	17	Cn1cc2c(-c3cc(F)c(CN4Cc5nccnc5C4=O)c(F)c3)ccc(C(C)(C)O)c2n1 [Compound 138, 6-(2,6-Difluoro-4-(7-(2-hydroxypropan-2-yl)-2-methyl-2H-indazol-4-yl)benzyl)-6,7-dihydro-5H-pyrrolo[3,4-b]pyrazin-5-one]
–	85	0.176	4.11	13	CCn1cc2c(-c3cc(F)c(CN4Cc5ncccc5C4=O)c(F)c3)ccc(C(C)(C)O)c2n1 [Compound 99, 6-(4-(2-ethyl-7-(2-hydroxypropan-2-yl)-2H-indazol-4-yl)-2,6-difluorobenzyl)-6,7-dihydro-5H-pyrrolo[3,4-b]pyridin-5-one]
–	71	0.278	≥ 10	23	Cc1cc(-c2ccc(C(C)(C)O)c3nn(C)cc23)ccc1CN1Cc2ncccc2C1=O [Compound 58, 6-(4-(7-(2-hydroxypropan-2-yl)-2-methyl-2H-indazol-4-yl)-2-methylbenzyl)-6,7-dihydro-5H-pyrrolo[3,4-b]pyridin-5-one]
inactive	65	≥ 10	–	–	Cc1cc(-c2ccc(C(C)(C)O)cc2)ccc1CN1Cc2cccnc2C1=O [Compound 129, 6-((4′-(2-hydroxypropan-2-yl)-3-methyl-[1,1′-biphenyl]-4-yl)methyl)-5,6-dihydro-7H-pyrrolo[3,4-b]pyridin-7-one]
inactive	85	0.155	–	–	Cn1cc2c(-c3cc(F)c(CN4Cc5ccccc5C4=O)c(F)c3)ccc(C(C)(C)O)c2n1 [Compound 172, 2-(2,6-difluoro-4-(7-(2-hydroxypropan-2-yl)-2-methyl-2H-indazol-4-yl)benzyl)isoindolin-1-one]
–	63	0.145	6.33	15	Cn1cc2c(-c3cc(Cl)c(CN4Cc5ncccc5C4=O)c(Cl)c3)ccc(C(C)(C)O)c2n1 [Compound 64, 6-(2,6-dichloro-4-(7-(2-hydroxypropan-2-yl)-2-methyl-2H-indazol-4-yl)benzyl)-6,7-dihydro-5H-pyrrolo[3,4-b]pyridin-5-one]

The next lines start with the compound.

Compound	Agonist Activity Human M1 EC50 [1]	Emax [2] [%]	EC50 [2] [µM]	EC50 [1] [µM]	Emax [1] [%]
Cc1cc(-c2cc(C(C)(C)O)c3nn(C)cc3c2)cc(F)c1CN1Cc2ncccc2C1=O [Compound 50, 6-(2-fluoro-4-(7-(2-hydroxypropan-2-yl)-2-methyl-2H-indazol-5-yl)-6-methylbenzyl)-6,7-dihydro-5H-pyrrolo[3,4-b]pyridin-5-one]	inactive	66	0.784	–	–
CC(C)(O)c1cc(-c2cc(F)c(CN3Cc4ncccc4C3=O)c(F)c2)cc2cccnc12 [Compound 39, 6-(2,6-difluoro-4-(8-(2-hydroxypropan-2-yl)quinolin-6-yl)benzyl)-6,7-dihydro-5H-pyrrolo[3,4-b]pyridin-5-one]	–	72	0.472	≥ 10	8
[2H]C([2H])([2H])n1cc2c(-c3cc(C)c(CN4Cc5ncccc5C4=O)c(F)c3)ccc(C(C)(C)O)c2n1 (single isomer, unassigned) [Compound 15, 6-(2-fluoro-4-(7-(2-hydroxypropan-2-yl)-2-(methyl-d3)-2H-indazol-4-yl)-6-methylbenzyl)-6,7-dihydro-5H-pyrrolo[3,4-b]pyridin-5-one]	–	77	0.081	2.99	41
CC(C)(O)c1ccc(-c2cc(F)c(CN3Cc4ncccc4C3=O)c(F)c2)c2cccnc12 [Compound 38, 6-(2,6-difluoro-4-(8-(2-hydroxypropan-2-yl)quinolin-5-yl)benzyl)-6,7-dihydro-5H-pyrrolo[3,4-b]pyridin-5-one]	inactive	59	4.31	–	–
Cc1cc(-c2ccc(C(C)(C)O)cc2)ccc1CN1Cc2ncccc2C1=O [Compound 12, 6-((4′-(2-hydroxypropan-2-yl)-3-methyl-[1,1′-biphenyl]-4-yl)methyl)-6,7-dihydro-5H-pyrrolo[3,4-b]pyridin-5-one]	inactive	70	5.94	–	–
CC(C)(O)c1cncc(-c2cc(F)c(CN3Cc4ncccc4C3=O)c(F)c2)c1 [Compound 42, 6-(2,6-difluoro-4-(5-(2-hydroxypropan-2-yl)pyridin-3-yl)benzyl)-6,7-dihydro-5H-pyrrolo[3,4-b]pyridin-5-one]	inactive	48	≥ 10	–	–
Cn1cc(-c2cc(F)c(CN3Cc4ncccc4C3=O)c(F)c2)c2ccc(C(C)(C)O)cc21 [Compound 40, 6-(2,6-difluoro-4-(6-(2-hydroxypropan-2-yl)-1-methyl-1H-indol-3-yl)benzyl)-6,7-dihydro-5H-pyrrolo[3,4-b]pyridin-5-one]	inactive	73	2.19	–	–
